Species: Rattus norvegicus
Assay: DrugMatrix - Regimen: Daily Repeat
Type: toxicity, organism-based, Sprague-Dawley
Design: regimen Daily Repeat, gender Male, age 6-8 weeks
Conditions: in vivo, po, route oral GAVAGE, […]; for ABSOLUTE BASOPHIL / ABSOLUTE EOSINOPHIL / ABSOLUTE LYMPHOCYTE / ABSOLUTE MONOCYTE / ABSOLUTE SEGMENTED NEUTROPHIL / BASOPHIL / EOSINOPHIL / ERYTHROCYTE COUNT / HEMATOCRIT / HEMOGLOBIN / LEUKOCYTE COUNT / LYMPHOCYTE / MEAN CORPUSCULAR HEMOGLOBIN / MEAN CORPUSCULAR HEMOGLOBIN CONCENTRATION / MEAN CORPUSCULAR VOLUME / MONOCYTE / NEUTROPHIL / NUCLEATED RED BLOOD CELLS / PLATELET COUNT: tissue Blood; for ALANINE AMINOTRANSFERASE / ALBUMIN / ALKALINE PHOSPHATASE / ASPARTATE AMINOTRANSFERASE / BLOOD UREA NITROGEN / CARBON DIOXIDE / CHLORIDE / CHOLESTEROL / CREATINE PHOSPHOKINASE / CREATININE / GLUCOSE / LACTATE DEHYDROGENASE / LIPASE / PHOSPHORUS / POTASSIUM / SODIUM / TOTAL BILIRUBIN / TOTAL PROTEIN / URIC ACID: tissue Plasma
[1] = 0 mg/kg, 72 h, dose level Control, time 3 day
[2] = 0 mg/kg, 120 h, dose level Control, time 5 day
[3] = 30 mg/kg, 72 h, dose level Low, time 3 day

Question: With `Cc1oncc1C(=O)Nc1ccc(C(F)(F)F)cc1` [LEFLUNOMIDE] as the compound, how does the “ABSOLUTE BASOPHIL” value [1] read?
Answer: 0 CELLS/uL

Question: What about the “ABSOLUTE EOSINOPHIL” value [1] of the same compound?
Answer: 52.33 CELLS/uL

Question: What about the “ABSOLUTE LYMPHOCYTE” value [1] of the same compound?
Answer: 9105.33 CELLS/uL

Question: And the “ABSOLUTE MONOCYTE” value [1]?
Answer: 155.67 CELLS/uL

Question: And the “ABSOLUTE SEGMENTED NEUTROPHIL” value [1]?
Answer: 1020 CELLS/uL

Question: What about the BASOPHIL [1] of the same compound?
Answer: 0%

Question: What about the EOSINOPHIL [1] of the same compound?
Answer: 0.33%

Question: And the “ERYTHROCYTE COUNT” value [1]?
Answer: 5.03 x10E6/uL

Question: And the HEMATOCRIT [1]?
Answer: 31.63%

Question: And the HEMOGLOBIN [1]?
Answer: 12.37 G/DL

Question: What about the “LEUKOCYTE COUNT” value [1] of the same compound?
Answer: 10.33 x10E3/uL

Question: What about the LYMPHOCYTE [1] of the same compound?
Answer: 87%

Question: What about the “MEAN CORPUSCULAR HEMOGLOBIN” value [1] of the same compound?
Answer: 24.57 pg

Question: And the “MEAN CORPUSCULAR HEMOGLOBIN CONCENTRATION” value [1]?
Answer: 39.07 G/DL

Question: And the “MEAN CORPUSCULAR VOLUME” value [1]?
Answer: 62.93 fL

Question: What about the MONOCYTE [1] of the same compound?
Answer: 1.33%

Question: And the NEUTROPHIL [1]?
Answer: 11.33%

Question: And the “NUCLEATED RED BLOOD CELLS” value [1]?
Answer: 0 /100WBC

Question: And the “PLATELET COUNT” value [1]?
Answer: 896 x10E3/uL

Question: And the “ALANINE AMINOTRANSFERASE” value [1]?
Answer: 75.33 u/L

Question: What about the ALBUMIN [1] of the same compound?
Answer: 3.77 G/DL

Question: And the “ALKALINE PHOSPHATASE” value [1]?
Answer: 378.67 u/L

Question: And the “ASPARTATE AMINOTRANSFERASE” value [1]?
Answer: 101.33 u/L

Question: And the “BLOOD UREA NITROGEN” value [1]?
Answer: 11.33 mg/dL

Question: What about the “CARBON DIOXIDE” value [1] of the same compound?
Answer: 25 mmol/L

Question: What about the CHLORIDE [1] of the same compound?
Answer: 99 MEQ/L

Question: What about the CHOLESTEROL [1] of the same compound?
Answer: 66 mg/dL

Question: What about the “CREATINE PHOSPHOKINASE” value [1] of the same compound?
Answer: 277 u/L

Question: And the CREATININE [1]?
Answer: 0.33 mg/dL

Question: And the GLUCOSE [1]?
Answer: 198.33 mg/dL

Question: What about the “LACTATE DEHYDROGENASE” value [1] of the same compound?
Answer: 140.33 u/L

Question: What about the LIPASE [1] of the same compound?
Answer: 11.33 u/L

Question: And the PHOSPHORUS [1]?
Answer: 11.83 mg/dL

Question: What about the POTASSIUM [1] of the same compound?
Answer: 5.37 MEQ/L

Question: And the SODIUM [1]?
Answer: 141.03 MEQ/L

Question: What about the “TOTAL BILIRUBIN” value [1] of the same compound?
Answer: 0.2 mg/dL

Question: And the “TOTAL PROTEIN” value [1]?
Answer: 5.47 G/DL

Question: And the “URIC ACID” value [1]?
Answer: 0.93 mg/dL

Question: What about the “ABSOLUTE BASOPHIL” value [2] of the same compound?
Answer: 0 CELLS/uL

Question: What about the “ABSOLUTE EOSINOPHIL” value [2] of the same compound?
Answer: 0 CELLS/uL

Question: What about the “ABSOLUTE LYMPHOCYTE” value [2] of the same compound?
Answer: 8734 CELLS/uL

Question: And the “ABSOLUTE MONOCYTE” value [2]?
Answer: 98.67 CELLS/uL

Question: What about the “ABSOLUTE SEGMENTED NEUTROPHIL” value [2] of the same compound?
Answer: 1034 CELLS/uL

Question: What about the BASOPHIL [2] of the same compound?
Answer: 0%

Question: And the EOSINOPHIL [2]?
Answer: 0%

Question: What about the “ERYTHROCYTE COUNT” value [2] of the same compound?
Answer: 5.19 x10E6/uL

Question: And the HEMATOCRIT [2]?
Answer: 33.2%

Question: What about the HEMOGLOBIN [2] of the same compound?
Answer: 12.93 G/DL

Question: And the “LEUKOCYTE COUNT” value [2]?
Answer: 9.87 x10E3/uL

Question: And the LYMPHOCYTE [2]?
Answer: 87%

Question: And the “MEAN CORPUSCULAR HEMOGLOBIN” value [2]?
Answer: 25 pg

Question: And the “MEAN CORPUSCULAR HEMOGLOBIN CONCENTRATION” value [2]?
Answer: 39.03 G/DL

Question: And the “MEAN CORPUSCULAR VOLUME” value [2]?
Answer: 63.93 fL

Question: What about the MONOCYTE [2] of the same compound?
Answer: 1%

Question: What about the NEUTROPHIL [2] of the same compound?
Answer: 12%

Question: What about the “NUCLEATED RED BLOOD CELLS” value [2] of the same compound?
Answer: 0 /100WBC

Question: And the “PLATELET COUNT” value [2]?
Answer: 1190 x10E3/uL

Question: And the “ALANINE AMINOTRANSFERASE” value [2]?
Answer: 75.67 u/L

Question: And the ALBUMIN [2]?
Answer: 4 G/DL

Question: And the “ALKALINE PHOSPHATASE” value [2]?
Answer: 384.33 u/L

Question: And the “ASPARTATE AMINOTRANSFERASE” value [2]?
Answer: 89.67 u/L

Question: And the “BLOOD UREA NITROGEN” value [2]?
Answer: 13 mg/dL

Question: And the “CARBON DIOXIDE” value [2]?
Answer: 32.67 mmol/L

Question: What about the CHLORIDE [2] of the same compound?
Answer: 103 MEQ/L

Question: What about the CHOLESTEROL [2] of the same compound?
Answer: 79.67 mg/dL

Question: And the “CREATINE PHOSPHOKINASE” value [2]?
Answer: 199.33 u/L

Question: And the CREATININE [2]?
Answer: 0.29 mg/dL

Question: And the GLUCOSE [2]?
Answer: 161.33 mg/dL

Question: What about the “LACTATE DEHYDROGENASE” value [2] of the same compound?
Answer: 92.33 u/L

Question: What about the LIPASE [2] of the same compound?
Answer: 11.67 u/L

Question: What about the PHOSPHORUS [2] of the same compound?
Answer: 10.8 mg/dL

Question: And the POTASSIUM [2]?
Answer: 5.38 MEQ/L

Question: What about the SODIUM [2] of the same compound?
Answer: 145.3 MEQ/L

Question: And the “TOTAL BILIRUBIN” value [2]?
Answer: 0.17 mg/dL

Question: And the “TOTAL PROTEIN” value [2]?
Answer: 5.7 G/DL

Question: And the “URIC ACID” value [2]?
Answer: 0.63 mg/dL

Question: And the “ABSOLUTE BASOPHIL” value [3]?
Answer: 0 CELLS/uL

Question: What about the “ABSOLUTE EOSINOPHIL” value [3] of the same compound?
Answer: 0 CELLS/uL

Question: What about the “ABSOLUTE LYMPHOCYTE” value [3] of the same compound?
Answer: 5968 CELLS/uL

Question: And the “ABSOLUTE MONOCYTE” value [3]?
Answer: 69 CELLS/uL

Question: And the “ABSOLUTE SEGMENTED NEUTROPHIL” value [3]?
Answer: 863 CELLS/uL

Question: And the BASOPHIL [3]?
Answer: 0%

Question: What about the EOSINOPHIL [3] of the same compound?
Answer: 0%

Question: And the “ERYTHROCYTE COUNT” value [3]?
Answer: 5.11 x10E6/uL

Question: What about the HEMATOCRIT [3] of the same compound?
Answer: 32.33%

Question: What about the HEMOGLOBIN [3] of the same compound?
Answer: 12.8 G/DL

Question: And the “LEUKOCYTE COUNT” value [3]?
Answer: 6.9 x10E3/uL

Question: What about the LYMPHOCYTE [3] of the same compound?
Answer: 87%

Question: What about the “MEAN CORPUSCULAR HEMOGLOBIN” value [3] of the same compound?
Answer: 25.03 pg

Question: What about the “MEAN CORPUSCULAR HEMOGLOBIN CONCENTRATION” value [3] of the same compound?
Answer: 39.63 G/DL

Question: What about the “MEAN CORPUSCULAR VOLUME” value [3] of the same compound?
Answer: 63.2 fL

Question: What about the MONOCYTE [3] of the same compound?
Answer: 1%

Question: And the NEUTROPHIL [3]?
Answer: 12%

Question: And the “NUCLEATED RED BLOOD CELLS” value [3]?
Answer: 0 /100WBC

Question: And the “PLATELET COUNT” value [3]?
Answer: 794.67 x10E3/uL

Question: And the “ALANINE AMINOTRANSFERASE” value [3]?
Answer: 46.33 u/L

Question: And the ALBUMIN [3]?
Answer: 3.67 G/DL

Question: And the “ALKALINE PHOSPHATASE” value [3]?
Answer: 251.33 u/L

Question: What about the “ASPARTATE AMINOTRANSFERASE” value [3] of the same compound?
Answer: 75.67 u/L

Question: What about the “BLOOD UREA NITROGEN” value [3] of the same compound?
Answer: 8 mg/dL

Question: And the “CARBON DIOXIDE” value [3]?
Answer: 29.67 mmol/L

Question: What about the CHLORIDE [3] of the same compound?
Answer: 101.33 MEQ/L

Question: What about the CHOLESTEROL [3] of the same compound?
Answer: 98.67 mg/dL

Question: What about the “CREATINE PHOSPHOKINASE” value [3] of the same compound?
Answer: 199.67 u/L

Question: And the CREATININE [3]?
Answer: 0.1 mg/dL

Question: And the GLUCOSE [3]?
Answer: 181.33 mg/dL

Question: What about the “LACTATE DEHYDROGENASE” value [3] of the same compound?
Answer: 70 u/L

Question: And the LIPASE [3]?
Answer: 10.67 u/L

Question: And the PHOSPHORUS [3]?
Answer: 9.87 mg/dL

Question: And the POTASSIUM [3]?
Answer: 4.69 MEQ/L

Question: And the SODIUM [3]?
Answer: 144.17 MEQ/L

Question: And the “TOTAL BILIRUBIN” value [3]?
Answer: 0.13 mg/dL

Question: And the “TOTAL PROTEIN” value [3]?
Answer: 5.17 G/DL

Question: What about the “URIC ACID” value [3] of the same compound?
Answer: 0.53 mg/dL
